From patent US9302999B2, “Substituted triazoles as herbicides” (E. I. DU PONT DE NEMOURS AND COMPANY, priority 2012, dated 2016)

Tests used:
Type in all cases: in vivo
[1] = test system: lambsquarters (Chenopodium album); assay: Test E pre-/postemergence: lambsquarters; settings: Preemergence, scale 0 to 100
From the text: (§1) Seeds of plant species selected from corn (Zea mays), soybean (Glycine max), velvetleaf (Abutilon theophrasti), lambsquarters (Chenopodium album), poinsettia, wild (wild poinsettia, Euphorbia heterophylla), pigweed, palmer (palmer pigweed, Amaranthus palmeri), waterhemp (common waterhemp, Amaranthus rudis), smartweed (ladysthumb smartweed, Polygonum persicaria), surinam grass (Brachiaria decumbens), crabgrass, large (large crabgrass, Digitaria sanguinalis), crabgrass, Brazil (Brazilian crabgrass, Digitaria horizontalis), panicum, fall (fall panicum, Panicum dichotomiflorum), foxtail, giant (giant foxtail, Setaria faberii), foxtail, green (green foxtail, Setaria viridis), goosegrass (Eleusine indica), johnsongrass (Sorghum halepense), ragweed (common ragweed, Ambrosia elation), barnyardgrass (Echinochloa crus-galli), sandbur (southern sandbur, Cenchrus echinatus), arrowleaf sida (Sida rhombifolia), ryegrass, Italian (Italian ryegrass, Lolium multiflorum), dayflower, (VA) (Virginia dayflower, Commelina virginica), field bindweed (Convolvulus arvensis), cocklebur (common cocklebur, Xanthium strumarium), morningglory (Ipomoea coccinea), nightshade (eastern black nightshade, Solanum ptycanthum), kochia (Kochia scoparia), nutsedge, yellow (yellow nutsedge, Cyperus esculentus) and beggarticks (hairy beggarticks, Bidens pilosa) were planted into a silt loam soil and treated preemergence with test chemicals formulated in a non-phytotoxic solvent mixture which included a surfactant. At the same time, plants selected from these crop and weed species were planted in pots containing a growing medium comprising spaghnum peat moss, vermiculite, wetting agent and starter nutrients and treated with postemergence applications of some of the test chemicals formulated in the same manner. Plants ranged in height from 2 to 18 cm for postemergence treatments (1- to 4-leaf stage).
(§2) Treated plants and controls were maintained in a greenhouse for 14 to 21 days, after which time all species were compared to controls and visually evaluated. Plant response ratings, summarized in Table E, are based on a scale of 0 to 100 where 0 is no effect and 100 is complete control. A dash (-) response means no test result.

[2] = test system: ryegrass, Italian (Italian ryegrass, Lolium multiflorum); assay: Test E pre-/postemergence: ryegrass, Italian; settings: scale 0 to 100
From the text: as §1, §2

[3] = test system: cocklebur (common cocklebur, Xanthium strumarium); assay: Test E pre-/postemergence: cocklebur; settings: Preemergence, scale 0 to 100
From the text: as §1, §2

[4] = test system: waterhemp (common waterhemp, Amaranthus rudis); assay: Test E pre-/postemergence: waterhemp; settings: scale 0 to 100
From the text: as §1, §2

[5] = test system: panicum, fall (fall panicum Panicum dichotomiflorum); assay: Test F pre-/postemergence: panicum, fall; settings: Preemergence
From the text: (§3) Seeds of plant species selected from corn (Zea mays), soybean (Glycine max), velvetleaf (Abutilon theophrasti), lambsquarters (Chenopodium album), poinsettia, wild (wild poinsettia, Euphorbia heterophylla), pigweed, palmer (palmer pigweed, Amaranthus palmeri), waterhemp (common waterhemp, Amaranthus rudis), surinam grass (Brachiaria decumbens), crabgrass, Brazil (Brazilian crabgrass, Digitaria horizontalis), panicum, fall (fall panicum Panicum dichotomiflorum), crabgrass, large (large crabgrass, Digitaria sanguinalis), foxtail, giant (giant foxtail, Setaria faberii), foxtail, green (green foxtail Setaria viridis), goosegrass (Eleusine indica), ragweed (common ragweed, Ambrosia elatior), barnyardgrass (Echinochloa crus-galli), sandbur (southern sandbur, Cenchrus echinatus), arrowleaf sida (Sida rhombifolia), ryegrass, Italian (Italian ryegrass, Lolium multiflorum), dayflower, VA (Virginia (VA) dayflower, Commelina virginica), field bindweed (Convolvulus arvensis), cocklebur (common cocklebur, Xanthium strumarium), morningglory (Ipomoea coccinea), nightshade (eastern black nightshade, Solanum ptycanthum), kochia (Kochia scoparia), nutsedge, yellow (yellow nutsedge, Cyperus esculentus), johnsongrass (Sorghum halepense), smartweed (ladysthumb smartweed, Polygonum persicaria), and beggarticks (hairy beggarticks, Bidens pilosa), were planted into a silt loam soil and treated preemergence with test chemicals formulated in a non-phytotoxic solvent mixture which included a surfactant. At the same time, plants selected from these crop and weed species and also pigweed (Amaranthus retroflexus), waterhemp_RES1 (ALS/Triazine resistant common waterhemp, Amaranthus rudis) and waterhemp_RES2 (ALS/HPPD resistant common waterhemp, Amaranthus rudis) were planted in pots containing a planting medium comprising spaghnum peat moss, vermiculite, wetting agent and starter nutrients treated with postemergence applications of some of the test chemicals formulated in the same manner. Plants ranged in height from 2 to 18 cm for postemergence treatments (1- to 4-leaf stage).
as §2

[6] = test system: ragweed (common ragweed, Ambrosia elatior); assay: Test F pre-/postemergence: ragweed; settings: Preemergence
From the text: as §3, §2

[7] = test system: soybean (Glycine max); assay: Test F pre-/postemergence: soybean; settings: Preemergence
From the text: as §3, §2

[8] = test system: beggarticks (hairy beggarticks, Bidens pilosa); assay: Test F pre-/postemergence: beggarticks; settings: Preemergence
From the text: as §3, §2

[9] = 16 g ai/ha, scale 0 to 100 (0 no effect, 100 complete control)
[10] = 31 g ai/ha, scale 0 to 100 (0 no effect, 100 complete control)

Structure (SMILES) | Plant response rating: Lambsquarters ([1]; 8 g ai/ha) | Plant response rating: Lambsquarters ([1]; 16 g ai/ha) | Plant response rating: Lambsquarters ([1]; 31 g ai/ha) | Plant response rating: Lambsquarters ([1]; 62 g ai/ha) | Plant response rating: Lambsquarters ([1]; 125 g ai/ha) | Plant response rating: Ryegrass, Italian ([2]; Preemergence, 8 g ai/ha) | Plant response rating: Ryegrass, Italian ([2]; Preemergence, 16 g ai/ha) | Plant response rating: Ryegrass, Italian ([2]; Preemergence, 31 g ai/ha) | Plant response rating: Ryegrass, Italian ([2]; Preemergence, 62 g ai/ha) | Plant response rating: Ryegrass, Italian ([2]; Preemergence, 125 g ai/ha) | Plant response rating: Cocklebur ([3]; 16 g ai/ha) | Plant response rating: Cocklebur ([3]; 31 g ai/ha) | Plant response rating: Cocklebur ([3]; 62 g ai/ha) | Plant response rating: Cocklebur ([3]; 125 g ai/ha) | Plant response rating: Waterhemp ([4]; Preemergence, 8 g ai/ha) | Plant response rating: Waterhemp ([4]; Preemergence, 16 g ai/ha) | Plant response rating: Waterhemp ([4]; Preemergence, 31 g ai/ha) | Plant response rating: Waterhemp ([4]; Preemergence, 62 g ai/ha) | Plant response rating: Waterhemp ([4]; Preemergence, 125 g ai/ha) | further results
Cc1nn(-c2ccc(F)cc2)nc1Cc1ccnc(C(F)(F)F)c1 [Compound 16, 4-[[2-(4-fluorophenyl)-5-methyl-2H-1,2,3-triazol-4-yl]methyl]-2-(trifluoromethyl)pyridine] | 0 | 0 | 75 | 98 | 98 | 0 | 0 | 30 | 50 | 98 | 0 | 0 | 0 | 0 | 60 | 70 | 100 | 100 | 100 | –
Cc1nn(-c2ccc(C(F)(F)F)cc2)nc1Cc1ccnc(C(F)(F)F)c1 [Compound 47, 4-[[5-methyl-2-[4-(trifluoromethyl)phenyl]-2H-1,2,3-triazol-4-yl]methyl]-2-(trifluoromethyl)pyridine] | – | 95 | 95 | 98 | 100 | – | 20 | 40 | 70 | 100 | 0 | 10 | 20 | 35 | – | 100 | 100 | 100 | 100 | Plant response rating: Lambsquarters ([1]; 250 g ai/ha): 100; Plant response rating: Ryegrass, Italian ([2]; Postemergence, 250 g ai/ha): 80; Plant response rating: Ryegrass, Italian ([2]; Postemergence, 16 g ai/ha): 10; Plant response rating: Ryegrass, Italian ([2]; Postemergence, 31 g ai/ha): 20; Plant response rating: Ryegrass, Italian ([2]; Postemergence, 62 g ai/ha): 30; Plant response rating: Ryegrass, Italian ([2]; Postemergence, 125 g ai/ha): 50; Plant response rating: Ryegrass, Italian ([2]; Preemergence, 250 g ai/ha): 100; Plant response rating: Cocklebur ([3]; 250 g ai/ha): 50; Plant response rating: Waterhemp ([4]; Postemergence, 250 g ai/ha): 95; Plant response rating: Waterhemp ([4]; Postemergence, 16 g ai/ha): 60; Plant response rating: Waterhemp ([4]; Postemergence, 31 g ai/ha): 70; Plant response rating: Waterhemp ([4]; Postemergence, 62 g ai/ha): 80; Plant response rating: Waterhemp ([4]; Postemergence, 125 g ai/ha): 85; Plant response rating: Waterhemp ([4]; Preemergence, 250 g ai/ha): 100
Cc1nn(-c2ccc(F)cc2)nc1Oc1ccnc(C(F)(F)F)c1 [Compound 129, 4-[[2-(4-fluorophenyl)-5-methyl-2H-1,2,3-triazol-4-yl]oxy]-2-(trifluoromethyl)pyridine] | 0 | 0 | 0 | 75 | 98 | 0 | 25 | 25 | 40 | 60 | 0 | 0 | 35 | 35 | 20 | 35 | 80 | 100 | 100 | Plant response rating: Cocklebur ([3]; 8 g ai/ha): 0
Fc1ccc(-n2nc(Cc3ccnc(C(F)(F)F)c3)c(OCC(F)(F)F)n2)cc1 [Compound 142] | – | – | – | – | – | – | – | – | – | – | – | – | – | – | – | – | – | – | – | Plant response rating, Panicum, Fall [5, 9]: 25; Plant response rating, Panicum, Fall [5, 10]: 65; Plant response rating, Panicum, Fall ([5]; 125 g ai/ha, scale 0 to 100): 100; Plant response rating, Ragweed [6, 9]: 0; Plant response rating, Ragweed [6, 10]: 0; Plant response rating, Ragweed ([6]; 125 g ai/ha, scale 0 to 100): 40; Plant response rating, Soybean [7, 9]: 0; Plant response rating, Soybean [7, 10]: 0; Plant response rating, Soybean ([7]; 125 g ai/ha, scale 0 to 100): 25; Plant response rating, Beggarticks [8, 9]: 0; Plant response rating, Beggarticks [8, 10]: 40; Plant response rating, Beggarticks ([8]; 62 g ai/ha, scale 0 to 100): 65; Plant response rating, Beggarticks ([8]; 125 g ai/ha, scale 0 to 100): 75
